Results from patent publication US20170051149A1, “AZOARYLS AS REVERSIBLY MODULATABLE TUBULIN INHIBITORS” (ECOLE NORMALE SUPERIEURE DE LYON, priority 2014, published 2017).

Test system: tubulin
Test: turbidimetric tubulin polymerisation assay with irradiation
Assay type: biochemical
Settings: for tubulin polymerisation inhibition: 50 and 25 μM
Description: Turbidimetric tubulin polymerisation assays were performed as described in the literature^[29], following the increase in absorbance at 340 nm, but with the addition of irradiation supplied by the monochromator setup described in Part B. Two wavelengths were chosen for each compound, λE->Z (chosen to effect bulk trans->cis isomerisation, typically 390 nm), and λZ->E (chosen to effect bulk cis->trans isomerisation, typically 505 nm). The raw absorbance A(t) could be more clearly discussed by first correcting for any change in azoaryl absorbance over time by subtracting the absorbance of a control run performed without tubulin, yielding the corrected absorbance A*(t), and then taking its derivative R=dA*(t)/dt. Experiments were performed under six sets of conditions to illustrate the light control of tubulin polymerisation inhibition effected by the compounds of the invention: (a) in the dark (typical result: large R at the start decreasing rapidly over time), or (b) with constant irradiation at λE->Z (typical result: small R throughout the experiment), or (c) with constant irradiation at λZ->E (typical result: moderate R at the start decreasing slowly over time), or (d) with irradiation at λE->Z for an initial period then darkness (typical result: initial period with small R, then R increases after a while), or (e) with irradiation at λE->Z for a given period (typically 30 min) then irradiation at λZ->E (typical result: 30 minutes with small R, then R increases quickly to a moderate value which decreases slowly over time), or (f) with irradiation at λE->Z for a given period (usually 30 min) then a short irradiation at λZ->E (usually 30 seconds) then darkness (typical result: 30 minutes with small R, then R increases quickly to a moderate-to-large value which decreases slowly over time); the last three conditions required correction of A(t) to A*(t) to reveal the changes in absorption which were due only to tubulin polymerisation. It would be costly to determine light-dependent in vitro tubulin polymerisation IC50 values for each compound, eg. under protocols (a) and (b) (and/or (c)). This was not performed here since it was considered that such parameters have little predictive value in their intended complex biological settings, especially in light of the importance of biodistribution, tubulin-binding kinetics and lability (rather than thermodynamic binding strength) for tubulin disruption in biological settings.
Table 3 below illustrates typical results from experiments of type (a) (“DARK”) and (b) (“390 nm”) as described above, with compound (I.1) at concentrations well above the IC50 for the toxic regime, compared to a PBS-only control CTRL (no I.1 present).

COc1ccc(N=Nc2cc(OC)c(OC)c(OC)c2)cc1O [I.1, 2-methoxy-5-((3,4,5-trimethoxyphenyl)diazenyl)phenol]
A(λ = 340 nm) (25 μM, 390 nm, 0.0 min): 0.0000
A(λ = 340 nm) (25 μM, 390 nm, 0.5 min): −0.0026
A(λ = 340 nm) (25 μM, 390 nm, 1.0 min): −0.0022
A(λ = 340 nm) (25 μM, 390 nm, 1.5 min): −0.0022
A(λ = 340 nm) (25 μM, 390 nm, 2.0 min): −0.0010
A(λ = 340 nm) (25 μM, 390 nm, 3.0 min): 0.0004
A(λ = 340 nm) (25 μM, 390 nm, 3.5 min): 0.0029
A(λ = 340 nm) (25 μM, 390 nm, 4.0 min): 0.0027
A(λ = 340 nm) (25 μM, 390 nm, 4.5 min): 0.0034
A(λ = 340 nm) (25 μM, 390 nm, 5.0 min): 0.0100
A(λ = 340 nm) (25 μM, 390 nm, 5.5 min): 0.0094
A(λ = 340 nm) (25 μM, 390 nm, 6.0 min): 0.0132
A(λ = 340 nm) (25 μM, 390 nm, 6.5 min): 0.0174
A(λ = 340 nm) (25 μM, 390 nm, 7.0 min): 0.0171
A(λ = 340 nm) (25 μM, 390 nm, 7.5 min): 0.0222
A(λ = 340 nm) (25 μM, 390 nm, 8.0 min): 0.0241
A(λ = 340 nm) (25 μM, 390 nm, 8.5 min): 0.0259
A(λ = 340 nm) (25 μM, 390 nm, 9.0 min): 0.0288
A(λ = 340 nm) (25 μM, 390 nm, 9.5 min): 0.0313
A(λ = 340 nm) (25 μM, 390 nm, 10.0 min): 0.0341
A(λ = 340 nm) (25 μM, 390 nm, 10.5 min): 0.0358
A(λ = 340 nm) (25 μM, 390 nm, 11.0 min): 0.0402
A(λ = 340 nm) (25 μM, 390 nm, 11.5 min): 0.0413
A(λ = 340 nm) (25 μM, 390 nm, 12.0 min): 0.0443
A(λ = 340 nm) (25 μM, 390 nm, […]): −0.0001
A(λ = 340 nm) (25 μM, DARK, 0.0 min): 0.0000
A(λ = 340 nm) (25 μM, DARK, 0.5 min): 0.0001
A(λ = 340 nm) (25 μM, DARK, 1.0 min): −0.0016
A(λ = 340 nm) (25 μM, DARK, 1.5 min): 0.0018
A(λ = 340 nm) (25 μM, DARK, 2.0 min): 0.0119
A(λ = 340 nm) (25 μM, DARK, 3.0 min): 0.0492
A(λ = 340 nm) (25 μM, DARK, 3.5 min): 0.0689
A(λ = 340 nm) (25 μM, DARK, 4.0 min): 0.0851
A(λ = 340 nm) (25 μM, DARK, 4.5 min): 0.0984
A(λ = 340 nm) (25 μM, DARK, 5.0 min): 0.1073
A(λ = 340 nm) (25 μM, DARK, 5.5 min): 0.1133
A(λ = 340 nm) (25 μM, DARK, 6.0 min): 0.1150
A(λ = 340 nm) (25 μM, DARK, 6.5 min): 0.1212
A(λ = 340 nm) (25 μM, DARK, 7.0 min): 0.1249
A(λ = 340 nm) (25 μM, DARK, 7.5 min): 0.1228
A(λ = 340 nm) (25 μM, DARK, 8.0 min): 0.1250
A(λ = 340 nm) (25 μM, DARK, 8.5 min): 0.1259
A(λ = 340 nm) (25 μM, DARK, 9.0 min): 0.1240
A(λ = 340 nm) (25 μM, DARK, 9.5 min): 0.1276
A(λ = 340 nm) (25 μM, DARK, 10.0 min): 0.1276
A(λ = 340 nm) (25 μM, DARK, 10.5 min): 0.1255
A(λ = 340 nm) (25 μM, DARK, 11.0 min): 0.1290
A(λ = 340 nm) (25 μM, DARK, 11.5 min): 0.1299
A(λ = 340 nm) (25 μM, DARK, 12.0 min): 0.1333
A(λ = 340 nm) (25 μM, DARK, […]): 0.0274
A(λ = 340 nm) (50 μM, 390 nm, 0.0 min): 0.0000
A(λ = 340 nm) (50 μM, 390 nm, 0.5 min): 0.0014
A(λ = 340 nm) (50 μM, 390 nm, 1.0 min): 0.0020
A(λ = 340 nm) (50 μM, 390 nm, 1.5 min): 0.0033
A(λ = 340 nm) (50 μM, 390 nm, 2.0 min): 0.0027
A(λ = 340 nm) (50 μM, 390 nm, 3.0 min): 0.0066
A(λ = 340 nm) (50 μM, 390 nm, 3.5 min): 0.0074
A(λ = 340 nm) (50 μM, 390 nm, 4.0 min): 0.0100
A(λ = 340 nm) (50 μM, 390 nm, 4.5 min): 0.0084
A(λ = 340 nm) (50 μM, 390 nm, 5.0 min): 0.0122
A(λ = 340 nm) (50 μM, 390 nm, 5.5 min): 0.0166
A(λ = 340 nm) (50 μM, 390 nm, 6.0 min): 0.0163
A(λ = 340 nm) (50 μM, 390 nm, 6.5 min): 0.0172
A(λ = 340 nm) (50 μM, 390 nm, 7.0 min): 0.0213
A(λ = 340 nm) (50 μM, 390 nm, 7.5 min): 0.0209
A(λ = 340 nm) (50 μM, 390 nm, 8.0 min): 0.0221
A(λ = 340 nm) (50 μM, 390 nm, 8.5 min): 0.0268
A(λ = 340 nm) (50 μM, 390 nm, 9.0 min): 0.0268
A(λ = 340 nm) (50 μM, 390 nm, 9.5 min): 0.0293
A(λ = 340 nm) (50 μM, 390 nm, 10.0 min): 0.0320
A(λ = 340 nm) (50 μM, 390 nm, 10.5 min): 0.0318
A(λ = 340 nm) (50 μM, 390 nm, 11.0 min): 0.0327
A(λ = 340 nm) (50 μM, 390 nm, 11.5 min): 0.0333
A(λ = 340 nm) (50 μM, 390 nm, 12.0 min): 0.0359
A(λ = 340 nm) (50 μM, 390 nm, […]): 0.0052
A(λ = 340 nm) (50 μM, DARK, 0.0 min): 0.0000
A(λ = 340 nm) (50 μM, DARK, 0.5 min): 0.0010
A(λ = 340 nm) (50 μM, DARK, 1.0 min): 0.0014
A(λ = 340 nm) (50 μM, DARK, 1.5 min): 0.0034
A(λ = 340 nm) (50 μM, DARK, 2.0 min): 0.0128
A(λ = 340 nm) (50 μM, DARK, 3.0 min): 0.0552
A(λ = 340 nm) (50 μM, DARK, 3.5 min): 0.0734
A(λ = 340 nm) (50 μM, DARK, 4.0 min): 0.0926
A(λ = 340 nm) (50 μM, DARK, 4.5 min): 0.1046
A(λ = 340 nm) (50 μM, DARK, 5.0 min): 0.1139
A(λ = 340 nm) (50 μM, DARK, 5.5 min): 0.1209
A(λ = 340 nm) (50 μM, DARK, 6.0 min): 0.1269
A(λ = 340 nm) (50 μM, DARK, 6.5 min): 0.1284
A(λ = 340 nm) (50 μM, DARK, 7.0 min): 0.1262
A(λ = 340 nm) (50 μM, DARK, 7.5 min): 0.1379
A(λ = 340 nm) (50 μM, DARK, 8.0 min): 0.1338
A(λ = 340 nm) (50 μM, DARK, 8.5 min): 0.1359
A(λ = 340 nm) (50 μM, DARK, 9.0 min): 0.1367
A(λ = 340 nm) (50 μM, DARK, 9.5 min): 0.1374
A(λ = 340 nm) (50 μM, DARK, 10.0 min): 0.1397
A(λ = 340 nm) (50 μM, DARK, 10.5 min): 0.1370
A(λ = 340 nm) (50 μM, DARK, 11.0 min): 0.1405
A(λ = 340 nm) (50 μM, DARK, 11.5 min): 0.1417
A(λ = 340 nm) (50 μM, DARK, 12.0 min): 0.1402
A(λ = 340 nm) (50 μM, DARK, […]): 0.0305
tubulin polymerisation inhibition (390 nm irradiation): very strongly inhibited
tubulin polymerisation inhibition (in the dark): not inhibited
